Measurements reported in patent US10717742B2, “Spiro[3H-indole-3,2′-pyrrolidin]-2(1H)-one compounds and derivatives as MDM2-P53 inhibitors” (Boehringer Ingelheim International GmbH, priority 2015, dated 2020).

target: p53-MDM2 interaction (GST-MDM2 protein aa 23-117 / biotinylated p53 wt peptide) (Homo sapiens (Human), UniProt Q00987); test: Mdm2-p53 Inhibition AlphaScreen; assay type: binding; details: GST-MDM2 (aa 23-117) / biotinylated p53 wt peptide
Protocol: Mdm2-p53 Inhibition AlphaScreen
15 μL of compound in 20% DMSO (serial pre-dilutions of compound are done in 100% DMSO) is pipetted to the wells of a white OptiPlate-96 (Perkin Elmer). A mix consisting of 20 nM GST-MDM2 protein (aa 23-117) and 20 nM biotinylated p53 wt peptide (encompassing aa 16-27 of wt human p53, amino acid sequence […]-Ttds-Lys-Biotin, molecular weight 2132.56 g/mol) is prepared in assay buffer (50 mM Tris/HCl pH 7.2; 120 mM NaCl; 0.1% bovine serum albumin (BSA); 5 mM dithiothreitol (DTT); 1 mM ethylenediaminetetraacetic acid (EDTA); 0.01% Tween 20). 30 μL of the mix is added to the compound dilutions and incubated for 15 min at rt while gently shaking the plate at 300 rounds per minute (rpm). Subsequently, 15 μL of premixed AlphaLISA Glutathione Acceptor Beads and AlphaScreen Streptavidin Donor Beads from PerkinElmer (in assay buffer at a concentration of 10 μg/mL each) are added and the samples are incubated for 30 min at rt in the dark (shaking 300 rpm). Afterwards, the signal is measured in a PerkinElmer Envision HIS Multilabel Reader using the AlphaScreen protocol from Perkin Elmer.
Each plate contains negative controls where biotinylated p53-peptide and GST-MDM2 are left out and replaced by assay buffer. Negative control values are entered as low basis value when using the software GraphPad Prism for calculations. Furthermore, a positive control (5% DMSO instead of test compound; with protein/peptide mix) is pipetted. Determination of IC50 values are carried out using GraphPad Prism 3.03 software (or updates thereof).

p53-MDM2 interaction (GST-MDM2 protein aa 23-117 / biotinylated p53 wt peptide), sequence (Q00987 23-117): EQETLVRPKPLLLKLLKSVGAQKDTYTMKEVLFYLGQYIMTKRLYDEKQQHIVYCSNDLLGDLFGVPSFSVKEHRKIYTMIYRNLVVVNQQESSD

SMILES	IC50
O=C(O)c1ccc2c(c1)nc1n2CC[C@H]2[C@@H]1[C@H](c1cccc(Cl)c1F)[C@]1(C(=O)Nc3cc(Cl)ccc31)N2CC1CCCC1 [Ib-135]	15 nM
O=C(O)c1ccc2c(c1)nc1n2CC[C@H]2[C@@H]1[C@H](c1cccc(Cl)c1F)[C@]1(C(=O)Nc3cc(Cl)ccc31)N2CC1CCCCC1 [Ib-137]	34 nM
CCOc1cccc(CN2[C@H]3CCn4c(nc5cc(C(=O)O)ccc54)[C@H]3[C@H](c3cccc(Cl)c3F)[C@]23C(=O)Nc2cc(Cl)ccc23)c1 [Ib-139]	4 nM
CCOc1cccc(CN2[C@H]3CCn4c(nc5cc(C(=O)O)ccc54)[C@H]3[C@H](c3cccc(Cl)c3F)[C@]23C(=O)Nc2cc(Cl)ccc23)c1 [Ib-140]	2 nM
CCOc1cccc(CN2[C@@H]3CCn4c(nc5cc(C(=O)O)ccc54)[C@@H]3[C@@H](c3cccc(Cl)c3F)[C@@]23C(=O)Nc2cc(Cl)ccc23)c1 [Ib-141]	48 nM
COCc1cccc(CN2[C@H]3CCn4c(nc5cc(C(=O)O)ccc54)[C@H]3[C@H](c3cccc(Cl)c3F)[C@]23C(=O)Nc2cc(Cl)ccc23)c1 [Ib-142]	3 nM
COc1cccc(CCN2[C@H]3CCn4c(nc5cc(C(=O)O)ccc54)[C@H]3[C@H](c3cccc(Cl)c3F)[C@]23C(=O)Nc2cc(Cl)ccc23)c1 [Ib-144]	8 nM
O=C(O)c1ccc2c(c1)nc1n2CC[C@H]2[C@@H]1[C@H](c1cccc(Cl)c1F)[C@]1(C(=O)Nc3cc(Cl)ccc31)N2CCC(F)(F)F [Ib-146]	11 nM
N#CC12CC(CN3[C@H]4CCn5c(nc6cc(C(=O)O)ccc65)[C@H]4[C@H](c4cccc(Cl)c4F)[C@]34C(=O)Nc3cc(Cl)ccc34)(C1)C2 [Ib-148]	21 nM
CC(C)(C)CN1[C@H]2CCn3c(nc4cc(C(=O)O)ccc43)[C@H]2[C@H](c2cccc(Cl)c2F)[C@]12C(=O)Nc1cc(Cl)ccc12 [Ib-150]	20 nM
N#Cc1ccc2c(c1)NC(=O)[C@]21[C@@H](c2cccc(Cl)c2F)[C@@H]2c3nc4cc(C(=O)O)ccc4n3CC[C@@H]2N1CC1CC1 [Ib-152]	7 nM
O=C(O)c1ccc2nc3n(c2c1)CC[C@H]1[C@@H]3[C@H](c2cccc(Cl)c2F)[C@]2(C(=O)Nc3cc(Cl)ccc32)N1CC1CC1 [Ib-154]	3 nM
O=C(O)c1ccc2nc3n(c2c1)CC[C@H]1[C@@H]3[C@H](c2cccc(Cl)c2F)[C@]2(C(=O)Nc3cc(Cl)ccc32)N1CC1CC1 [Ib-155]	2 nM
O=C(O)c1cccc2nc3n(c12)CC[C@H]1[C@@H]3[C@H](c2cccc(Cl)c2F)[C@]2(C(=O)Nc3cc(Cl)ccc32)N1CC1CC1 [Ib-156]	5 nM
COc1cc2c(cc1C(=O)O)nc1n2CC[C@H]2[C@@H]1[C@H](c1cccc(Cl)c1F)[C@]1(C(=O)Nc3cc(Cl)ccc31)N2CC1CC1 [Ib-157]	2 nM
O=C(O)c1cc2nc3n(c2cc1OC(F)(F)F)CC[C@H]1[C@@H]3[C@H](c2cccc(Cl)c2F)[C@]2(C(=O)Nc3cc(Cl)ccc32)N1CC1CC1 [Ib-158]	3 nM
Cc1cc2c(cc1C(=O)O)nc1n2CC[C@H]2[C@@H]1[C@H](c1cccc(Cl)c1F)[C@]1(C(=O)Nc3cc(Cl)ccc31)N2CC1CC1 [Ib-159]	7 nM
Cc1c(C(=O)O)ccc2c1nc1n2CC[C@H]2[C@@H]1[C@H](c1cccc(Cl)c1F)[C@]1(C(=O)Nc3cc(Cl)ccc31)N2CC1CC1 [Ib-160]	4 nM
Cc1cc2c(nc3n2CC[C@H]2[C@@H]3[C@H](c3cccc(Cl)c3F)[C@]3(C(=O)Nc4cc(Cl)ccc43)N2CC2CC2)c(C)c1C(=O)O [Ib-161]	11 nM
CC(C)c1cc2c(cc1C(=O)O)nc1n2CC[C@H]2[C@@H]1[C@H](c1cccc(Cl)c1F)[C@]1(C(=O)Nc3cc(Cl)ccc31)N2CC1CC1 [Ib-162]	6 nM
O=C(O)c1cc2nc3n(c2cc1F)CC[C@H]1[C@@H]3[C@H](c2cccc(Cl)c2F)[C@]2(C(=O)Nc3cc(Cl)ccc32)N1CC1CC1 [Ib-163]	2 nM
O=C(O)c1cc2nc3n(c2cc1C(F)(F)F)CC[C@H]1[C@@H]3[C@H](c2cccc(Cl)c2F)[C@]2(C(=O)Nc3cc(Cl)ccc32)N1CC1CC1 [Ib-164]	3 nM
O=C(O)C1(c2ccc3c(c2)nc2n3CC[C@H]3[C@@H]2[C@H](c2cccc(Cl)c2F)[C@]2(C(=O)Nc4cc(Cl)ccc42)N3CC2CC2)CC1 [Ib-165]	28 nM
CC(C)(C(=O)O)c1ccc2c(c1)nc1n2CC[C@H]2[C@@H]1[C@H](c1cccc(Cl)c1F)[C@]1(C(=O)Nc3cc(Cl)ccc31)N2CC1CC1 [Ib-167]	22 nM
O=C(O)Cc1ccc2c(c1)nc1n2CC[C@H]2[C@@H]1[C@H](c1cccc(Cl)c1F)[C@]1(C(=O)Nc3cc(Cl)ccc31)N2CC1CC1 [Ib-169]	7 nM

SMILES	IC50
O=C(O)c1ccc2c(c1)nc1n2CC[C@H]2[C@@H]1[C@H](c1cccc(Cl)c1F)[C@]1(C(=O)Nc3nc(Cl)ccc31)N2CC1CC1 [Ib-171]	10 nM
CCOc1cccc(CN2[C@H]3CCn4c(nc5cc(C(=O)O)ccc54)[C@H]3[C@H](c3cccc(Cl)c3F)[C@]23C(=O)Nc2nc(Cl)ccc23)c1 [Ib-173]	7 nM
O=C(O)c1ccc2c(c1)nc1n2C[C@H]2[C@@H]1[C@H](c1cccc(Cl)c1F)[C@]1(C(=O)Nc3cc(Cl)ccc31)N2CC1CC1 [Ib-175]	3 nM
O=C(O)c1ccc2c(c1)nc1n2C[C@H]2[C@@H]1[C@H](c1cccc(Cl)c1F)[C@]1(C(=O)Nc3cc(Cl)ccc31)N2CC1CC1 [Ib-176]	2 nM
O=C(O)c1ccc2c(c1)nc1n2C[C@@H]2[C@H]1[C@@H](c1cccc(Cl)c1F)[C@@]1(C(=O)Nc3cc(Cl)ccc31)N2CC1CC1 [Ib-177]	53 nM
O=C(O)c1ccc2nc3n(c2c1)C[C@H]1[C@@H]3[C@H](c2cccc(Cl)c2F)[C@]2(C(=O)Nc3cc(Cl)ccc32)N1CC1CC1 [Ib-178]	4 nM
O=C(O)c1ccc2nc3n(c2c1)C[C@H]1[C@@H]3[C@H](c2cccc(Cl)c2F)[C@]2(C(=O)Nc3cc(Cl)ccc32)N1CC1CC1 [Ib-179]	2 nM
O=C(O)c1ccc2nc3n(c2c1)C[C@@H]1[C@H]3[C@@H](c2cccc(Cl)c2F)[C@@]2(C(=O)Nc3cc(Cl)ccc32)N1CC1CC1 [Ib-180]	83 nM
COCc1cccc(CN2[C@H]3Cn4c(nc5cc(C(=O)O)ccc54)[C@H]3[C@H](c3cccc(Cl)c3F)[C@]23C(=O)Nc2cc(Cl)ccc23)c1 [Ib-183]	3 nM
COCc1cccc(CN2[C@H]3Cn4c(nc5cc(C(=O)O)ccc54)[C@H]3[C@H](c3cccc(Cl)c3F)[C@]23C(=O)Nc2cc(Cl)ccc23)c1 [Ib-184]	2 nM
COCc1cccc(CN2[C@@H]3Cn4c(nc5cc(C(=O)O)ccc54)[C@@H]3[C@@H](c3cccc(Cl)c3F)[C@@]23C(=O)Nc2cc(Cl)ccc23)c1 [Ib-185]	14 nM
COc1cccc(CCN2[C@H]3Cn4c(nc5cc(C(=O)O)ccc54)[C@H]3[C@H](c3cccc(Cl)c3F)[C@]23C(=O)Nc2cc(Cl)ccc23)c1 [Ib-186]	4 nM
Cc1cc2c(cc1C(=O)O)nc1n2C[C@H]2[C@@H]1[C@H](c1cccc(Cl)c1F)[C@]1(C(=O)Nc3cc(Cl)ccc31)N2CC1CC1 [Ib-188]	3 nM
Cc1c(C(=O)O)ccc2c1nc1n2C[C@H]2[C@@H]1[C@H](c1cccc(Cl)c1F)[C@]1(C(=O)Nc3cc(Cl)ccc31)N2CC1CC1 [Ib-189]	3 nM
Cc1c(C(=O)O)ccc2c1nc1n2C[C@H]2[C@@H]1[C@H](c1cccc(Cl)c1F)[C@]1(C(=O)Nc3cc(Cl)ccc31)N2CC1CC1 [Ib-190]	2 nM
CCN1[C@H]2Cn3c(nc4cc(C(=O)O)c(C)cc43)[C@H]2[C@H](c2cccc(Cl)c2F)[C@]12C(=O)Nc1cc(Cl)ccc12 [Ib-191]	6 nM
O=C(O)c1ccc2c(nc3n2C[C@H]2[C@@H]3[C@H](c3cccc(Cl)c3F)[C@]3(C(=O)Nc4cc(Cl)ccc43)N2CC2CC2)c1C(F)(F)F [Ib-193]	3 nM
O=C(O)c1cc2nc3n(c2cc1C(F)(F)F)C[C@H]1[C@@H]3[C@H](c2cccc(Cl)c2F)[C@]2(C(=O)Nc3cc(Cl)ccc32)N1CC1CC1 [Ib-195]	6 nM
O=C(O)c1cc2nc3n(c2cc1OC(F)(F)F)C[C@H]1[C@@H]3[C@H](c2cccc(Cl)c2F)[C@]2(C(=O)Nc3cc(Cl)ccc32)N1CC1CC1 [Ib-197]	2 nM
O=C(O)c1ccc2c(c1)nc1n2C[C@H]2[C@@H]1[C@H](c1cccc(Br)c1F)[C@]1(C(=O)Nc3cc(Cl)ccc31)N2CC1CC1 [Ib-198]	4 nM
O=C(O)c1ccc2c(c1)nc1n2C[C@H]2[C@@H]1[C@H](c1cc(Cl)cs1)[C@]1(C(=O)Nc3cc(Cl)ccc31)N2CC1CC1 [Ib-200]	3 nM
O=C(O)c1ccc2c(c1)nc1n2C[C@H]2[C@@H]1[C@H](c1ccc(Cl)s1)[C@]1(C(=O)Nc3cc(Cl)ccc31)N2CC1CC1 [Ib-202]	7 nM
Cc1c(C(=O)O)ccc2nc3n(c12)CC[C@H]1[C@@H]3[C@H](c2cccc(Cl)c2F)[C@]2(C(=O)Nc3cc(Cl)ccc32)N1CC1CC1 [Ib-204]	2 nM
Cc1cc(C(=O)O)cc2c1nc1n2CC[C@H]2[C@@H]1[C@H](c1cccc(Cl)c1F)[C@]1(C(=O)Nc3cc(Cl)ccc31)N2CC1CC1 [Ib-205]	3 nM
Cc1c(C(=O)O)ccc2nc3n(c12)CC[C@H]1[C@@H]3[C@H](c2cccc(Cl)c2F)[C@]2(C(=O)Nc3cc(Cl)ccc32)N1CC1CC1 [Ib-206]	4 nM
